Results published in patent publication US20090036437A1, “PHARMACEUTICAL COMPOSITION COMPRISING PHENOXAZINIUM COMPOUND AS AN ACTIVE INGREDIENT” (priority 2005, published 2009).
Marks after values point to notes of the source that are not given here.

Tests used:
[1] = mouse, in vivo, po
[2] = test system: Plasmodium berghei NK65 strain; assay: in vivo treatment test by oral administration into mouse infected with malaria; details: for Cure rate (%) / life-elongation effect: oral; for Cure rate (%): 5 days after infection
Procedure: This test was carried out in accordance with 4-day suppressive test that is a general in vivo test for the activity of an anti-malaria compound. Rodent malaria protozoa (Plasmodium berghei NK65 strain) were used in this test. Infected blood was prepared by infection with intraperitoneal administration into ICR male mouse (5 weeks age; SPF) and passage culture (subculture) thereafter. Blood was drawn from the vein of a tail of the moue infected with malaria, and its infection ratio was determined. After it was confirmed that the infection ratio had been increased up to an appropriated level (10˜20%), the blood infected with malaria was drawn from the heart of the mouse. The infection ratio and number (cells/mL) of erythrocytes were determined. An uninfected mouse (ICR male, 5 weeks age) was then infected with an injection of the infected erythrocytes so diluted with PBS as to comprise the protozoa of […] per dose (0.2 mL) into the vein of its tail.
A test sample was prepared by dissolving the test compounds according to the present invention into physiologic saline (Otsuka Pharmaceuticals Industries) to a predetermined concentration. In the case where the compound was insoluble in water, it was dissolved into DMSO or Tween 20 to prepare the test sample. A control group (no drug-administration group) was treated only with physiologic saline. Weight of the mouse was determined so that a dose would comprise 5.0 mg per 1 kg of its weight.
One group consisted of five mice. The intraperitoneal administration of the test sample started after two hours from the infection with malaria and continued for successive 4 days with a 24-hour interval. After 24 hours from the last administration, blood was drawn from the tail of the infected mouse to prepare a thin-layer smear, and the number of the erythrocytes infected with the malaria protozoa under a microscope with respect to the control group and the test sample groups. Parasitemia, i.e., the infection ratio with the malaria protozoa, was obtained by calculating an average value of the medium three mice except the two mice showing a maximum or minimum inhibition level. A cure rate (suppression) was then calculated from the resulting parasitemia in accordance with the following equation.
Cure rate: suppression (%)=(b−a)/b×100 • a: Infection ratio of the test sample group; and • b: Infection ratio of the control group.
The cure rate (%) of the mice after 5 days from the infection with malaria and the treatment with A-1 (60% purity) according to Example 5 (25-100 mg/kg/day, through the oral administration) were shown in TABLE 6. The oral administration, starting after two hours from the infection with malaria, consisted of four times with a 24-hour interval, 12 times with 8-hour interval or single dose.
The cure rate (%) of the mice after 5 days from the infection with malaria and the treatment with A-1 (100 mg/kg/day, through the oral administration of four times with a 24-hour interval or singe dose) were shown in TABLE 7.

[3] = in vitro growth-inhibiting assay of rat L6 cells; format: cell-based; details: rat, L6 cells (rat skeletal myoblast cells); Table 3; 72 h, Alamar Blue; read-out: 50% growth-inhibiting concentration (nM) cytotoxicity L6

Row | SMILES | reduction in weight or change of the conditions of mice attributed to side effects [1] | mice still alive after 30 days ([2]; oral 100 mg/kg four times with a 24-hour interval, one mouse died on day 21) | presence of the protozoa of malaria in blood of surviving mice after 36 days ([2]; oral 100 mg/kg four times with a 24-hour interval, three surviving mice) | Cure rate (%) ([2]; 12 times with 8-hour interval, 15 mg/kg/dose) | life-elongation effect ([2]; all treatments of Table 6) | Cure rate (%) ([2]; four times with a 24-hour interval, 25 mg/kg/dose) | Cure rate (%) ([2]; four times with a 24-hour interval, 50 mg/kg/dose) | Cure rate (%) ([2]; four times with a 24-hour interval, 90 mg/kg/dose) | Cure rate (%) ([2]; four times with a 24-hour interval, 100 mg/kg/dose, one of five mice died due to technical error) | Cure rate (%) ([2]; single administration, 100 mg/kg/dose) | Cure rate (%) ([2]; Table 7, four times with 24-hour interval, 100 mg/kg/dose) | Cure rate (%) ([2]; Table 7, single administration, 100 mg/kg/dose) | life-elongation effect ([2]; all treatments of Table 7) | EC50 at 72 h [3]
1 | CCN(CC)c1ccc2nc3ccc(=[N+](CC)CC)cc-3oc2c1.[Cl-] [A-1 (60% purity)] | No reduction in weight or change of the conditions of mice | three mice of the four mice | No protozoa of malaria was shown to be present in the blood | >99.99% | significant life-elongation effect | 82.3% | 98.6% | >99.99% | >99.99* % | >99.99% | – | – | – | –
2 | CCN(CC)c1ccc2nc3ccc(=[N+](CC)CC)cc-3oc2c1.[Cl-] [A-1 (>95% purity)] | No reduction in weight or change of the conditions of mice | – | – | – | – | – | – | – | – | – | >99.99% | 78.3% | significant life-elongation effect | –
3 | CC[N+](CC)=c1ccc2nc3ccc(N(C)C)cc3oc-2c1 [Compound A-4] | – | – | – | – | – | – | – | – | – | – | – | – | – | 4690 nM
